From patent US11382877B2, “Formulation of (E)-2,4,6-trimethoxystyryl-3-[(carboxymethyl)amino]-4-methoxybenzylsulphone with enhanced stability and bioavailability” (ONCONOVA THERAPEUTICS, INC., priority 2017, dated 2022)
Counter-ions that a name gives are not always drawn.

Columns and labels:
[1] = Phase II, Part 2 study of shorter spacing between two oral doses with azacitidine, urinary adverse events; type: in vivo, patients; settings: doses administered about 8 hours apart
Procedure: This study was conducted in patients with high risk MDS. RAEB-t (Refractory Anemia with Excess Blasts in Transformation)/non-proliferative AML were eligible but patients with CMML (Chronic Myelomonocytic Leukemia) were excluded.
The Phase II, Part 2 component of the study consisted of 2 cohorts of up to 40 evaluable patients randomized 1:1 into 2 cohorts of up to 20 patients each to receive 1120 mg of rigosertib over 24 hours: either 560 mg in the morning before breakfast in the fasting state and 560 mg in the afternoon, or 840 mg in the morning before breakfast in the fasting state and 280 mg in the afternoon. The afternoon dose in both cohorts must be administered at 3 PM (±1 hr) at least 2 hours after lunch. Each cohort will be stratified among HMA (hypomethylating agents) naïve and HMA refractory patients.
Each patient was required to complete a diary indicating the day and time of drug intake and record daily urinary dipstick pH and microscopic hematuria test. Rigosertib was supplied as 280 mg and 70 mg (in the event that different doses are needed) capsules by Onconova. […]
Safety assessment: medical history, physical examination, vital signs (blood pressure, temperature, respiration rate, and pulse), weight, standard 12-lead ECG, laboratory evaluations, and toxicity and AE assessments were monitored throughout the study. […]

[2] = Phase 2 study in lower risk transfusion-dependent MDS patients, continuous vs intermittent oral administration, urinary adverse events; type: in vivo
Procedure: Soft gelatin capsule of Rigosertib was tested in this phase 2 study in LR (Lower Risk intermediate-1 or low risk per IPSS classification) transfusion-dependent MDS patients. The capsules (560 mg) were administered twice a day, under fasting conditions, approximately 12 hours apart. The total dose of drug was 1120 mg per day. Various treatment regimens were tested: • Continuous administration, i.e 4 out of 4 weeks. 9 patients were treated. • Intermittent administration; i.e 2 weeks on and one week off. 35 patients were treated. Safety assessment: medical history, physical examination, vital signs (blood pressure, temperature, respiration rate, and pulse), weight, standard 12-lead ECG, laboratory evaluations, and toxicity and AE assessments were monitored throughout the study. Urinary Adverse Events are pollakiuria, micturition urgency, urinary tract pain, hematuria and dysuria.

[3] = test system: immature bone marrow cells; test: Higher risk MDS patients who previously failed Vidaza or Dacogen; type: in vivo; settings: higher risk MDS patients after failure of azacitidine or decitabine
Text: In another embodiment, the efficacy of Rigosertib was shown in higher risk MDS patients who had previously failed treatment with Vidaza (azacitidine) or Dacogen (decitabine). […] These patients experienced at least a 50 percent decrease or stabilization in the number of immature bone marrow cells, and their median survival was about 36 weeks.

[4] = administered orally; cited from earlier work
[5] = test system: immature bone marrow cells (blasts); test: Intravenous infusion trials in MDS patients; type: in vivo
Procedure: According to one embodiment, Rigosertib was given as an intravenous infusion to MDS patients. In one trial, patients received 800 mg Rigosertib for two to five days every other week. According to another embodiment, patients received 650 to 1,700 mg Rigosertib for three to six days every other week. According to yet another embodiment, patients were initially treated with 800 mg to 1,500 mg Rigosertib for two days every week for three weeks followed by one week without treatment. The treatment schedule in these studies was later changed to 1,800 mg Rigosertib per day for three days every other week.

[6] = 560 mg bid q12 hrs, intermittent 2 weeks on/1 week off, n = 35

For `COc1cc(OC)c(/C=C/S(=O)(=O)Cc2ccc(OC)c(NCC(=O)O)c2)c(OC)c1` [Rigosertib, (E)-2,4,6-trimethoxystyryl-3-[(carboxymethyl)amino]-4-methoxybenzylsulphone sodium salt], the “Incidence of urinary adverse events (in words)” value [1] was “dramatic reduction”, the “Incidence of Urinary AEs, Grade 1/2 (% of Patients)” value [2, 6] was 71% and the “Incidence of Urinary AEs, Grade 1/2, number of patients” value [2, 6] was 25. The “Incidence of Urinary AEs, Grade 3 (% of Patients)” value [2, 6] was 23%, the “Incidence of Urinary AEs, Grade 3, number of patients” value [2, 6] was 8 and the “Urinary adverse events (in words)” value ([2]; continuous administration 4 out of 4 weeks, 560 mg twice a day) was “high urinary adverse events”. The “Tolerability compared to continuous administration” value ([2]; intermittent administration 2 weeks on and one week off, 560 mg twice a day) was “better tolerated”, the “Decrease or stabilization in the number of immature bone marrow cells” value [3] was no less than 50% and the Median survival [3] was “about 36 weeks”. For the same compound, the Common adverse event [4] was “urothelial toxicity” and the “Decrease or stabilization in the number of immature bone marrow cells (blasts)” value [5] was no less than 50%.
